Among the data in patent US7498343B2, “Mycobacterial inhibitors” (priority 2002, dated 2009) are MIC and pIC50 values, retold here.

As a reminder, the pIC50 is the negative decadic logarithm of the IC50, by convention in mol/L. Lower therefore signals a large IC50.

The structures appear in SMILES notation.

Assay [1] relates to Mycobacterium tuberculosis (strain H37RV). Put plainly: In-vitro method for testing compounds against M. tuberculosis (resazurin growth inhibition, MIC). Particulars: MIC data representing IC90's, 7 days incubation, resazurin fluorescence. The format is cell-based.
The subject of assay [2] is M. Smegmatis ATCC607. The experiment in a line: In-vitro method for testing compounds for anti-bacterial activity against strain M. smegmatis ATCC607 (Alamar Blue growth inhibition). The format is cell-based. The conditions noted are these: M. smegmatis ATCC607; pIC50 = -logIC50, IC50 in M, 50% inhibitory concentration for bacterial growth; 48 hours incubation. The method, then: C.2. In-vitro Method for Testing Compounds for Anti-bacterial Activity Against Strain M. Smegmatis ATCC607. […] Subsequently, stock solutions (7.8×final test concentration) of compounds were added in 45 μl volumes to a series of duplicate wells in column 2 so as to allow evaluation of their effects on bacterial growth. Serial five-fold dilutions (45 μl in 180 μl) were made directly in the microtiter plates from column 2 to 11 using a customised robot system (Zymark Corp., Hopkinton, Mass.). Pipette tips were changed after every 3 dilutions to minimize pipetting errors with high hydrophobic compounds. Untreated control samples with (column 1) and without (column 12) inoculum were included in each microtiter plate. Approximately 250 CFU per well of bacteria inoculum, in a volume of 100 μl in 2.8×Mueller-Hinton broth medium, was added to the rows […]. The same volume of broth medium without inoculum was added to column 12 in row A to H. The cultures were incubated at 37° C. for 48 hours in a humidified 5% CO2 atmosphere (incubator with open air valve and continuous ventilation). At the end of incubation, two days after inoculation, the bacterial growth was quantitated fluorometrically. Therefore Alamar Blue (10×) was added to all wells in a volume of 20 μl and plates were incubated for another 2 hours at […] The fluorescence was read in a computer-controlled fluorometer (Cytofluor, Biosearch) at an excitation wavelength of 530 nm and an emission wavelength of 590 nm (gain 30). The % growth inhibition achieved by the compounds was calculated according to standard methods.

In assay [1], `COc1nc2ccc(Br)cc2cc1C(c1ccccc1)C(O)(CCN(C)C)c1ccc2ccccc2c1` (racemic) [Compound 45] came in with an MIC of 1.76 microgram/ml. The molecule also yielded a pIC50 in assay [2] of 8.0.
Regarding `COc1nc2ccc(Br)cc2cc1C(c1ccccc1)C(O)(CCN(C)C)c1ccc2ccccc2c1` (racemic) [Compound 46], the MIC in assay [1] was 1.76 microgram/ml. The molecule further had a pIC50 in assay [2] of 6.4.
With `COc1nc2ccc(Br)cc2cc1C(c1ccccc1)C(O)(CCN1CCN(C)CC1)c1ccccc1` (racemic) [Compound 51], in assay [2], the pIC50 turned out to be 5.8.
`COc1nc2ccc(Br)cc2cc1C(c1ccccc1)C(O)(CCN1CCN(C)CC1)c1ccccc1` (racemic) [Compound 52] yielded an MIC in assay [1] of 7.06 microgram/ml. Moreover, the pIC50 in assay [2] is recorded as 6.4.
For the molecule `COc1nc2ccc(Br)cc2cc1C(c1ccccc1)C(O)(CCn1cncn1)c1ccccc1` (racemic) [Compound 53], the MIC in assay [1] turned out to be 52.94 microgram/ml. Besides, the pIC50 in assay [2] amounted to 5.1.
`COc1nc2ccc(Br)cc2cc1C(c1ccccc1)C(O)(CCn1cncn1)c1ccccc1` (racemic) [Compound 54] returned an MIC in assay [1] of 52.94 microgram/ml. The molecule further yielded a pIC50 in assay [2] of 4.1.
For the molecule `COc1nc2ccc(Br)cc2cc1C(c1ccccc1)C(O)(CCN1CCSCC1)c1ccccc1` (racemic) [Compound 55], in assay [1], the MIC is 44.77 microgram/ml. This molecule gave a pIC50 in assay [2] of 5.1.
`CN(C)CCC(O)(c1ccccc1)C(c1ccccc1)c1cc2cc(Br)ccc2nc1O` (single isomer, unassigned) [Compound 59] returned a pIC50 in assay [2] of 5.1.
Turning to `CN(C)CCC(O)(c1ccccc1)C(c1ccccc1)c1cc2cc(Br)ccc2nc1O` (single isomer, unassigned) [Compound 60], the pIC50 in assay [2] stood at 5.6.
The molecule `CN(C)CCC(O)(c1ccccc1)C(c1ccccc1)c1cc2cc(Br)ccc2n2ccnc12` (single isomer, unassigned) [Compound 104] registered a pIC50 in assay [2] of 6.6.
The molecule `CN(C)CCC(O)(c1ccccc1)C(c1ccccc1)c1cc2cc(Br)ccc2n2ccnc12` (single isomer, unassigned) [Compound 105] came in with a pIC50 in assay [2] of 6.0.
Molecule `COc1nc2ccc(Br)cc2cc1C(c1ccccc1)C(O)(CCCN1CCOCC1)c1ccc2ccccc2c1` (single isomer, unassigned) [Compound 161] showed an MIC in assay [1] of 61.16 microgram/ml.
On to `COc1nc2ccc(Br)cc2cc1C(c1ccccc1)C(O)(CCN1CCOCC1)c1ccc2cc(Br)ccc2c1` (single isomer, unassigned) [Compound 177], for which, in assay [1], the MIC was 67.65 microgram/ml.
In assay [1], `COc1nc2ccc(Br)cc2cc1C(c1ccccc1)C(O)(CCn1ccnc1)c1cccc2ccccc12` (single isomer, unassigned) [Compound 187] came in with an MIC of 57.85 microgram/ml.
On to `COc1nc2ccc(Br)cc2cc1C(c1ccccc1)C(O)(CCN1CCN(c2ncccn2)CC1)c1ccc2ccccc2c1` (single isomer, unassigned) [Compound 209], for which the MIC in assay [1] is given as 67.47 microgram/ml.
In assay [2], `COc1nc2ccc(Br)cc2cc1C(c1ccccc1)C(O)(CCN(C)C)c1ccccc1` (stereo not shown) [Compound 1] gave a pIC50 of 7.3.
For `COc1nc2ccc(Br)cc2cc1C(c1ccccc1)C(O)(CCN(C)C)c1ccccc1` (stereo not shown) [Compound 2], the pIC50 in assay [2] was 6.8.
Turning to `COc1nc2ccc(Br)cc2cc1C(c1ccccc1)C(O)(CCN(C)C)c1ccccc1` (stereo not shown) [Compound 3], the pIC50 in assay [2] was determined as 6.7.
In the case of `COc1nc2ccc(Br)cc2cc1C(c1ccccc1)C(O)(CCN(C)C)c1ccccc1` (stereo not shown) [Compound 4], the pIC50 in assay [2] is given as 5.7.
Consider `COc1nc2ccc(Br)cc2cc1C(c1ccccc1)C(O)(CCN(C)C)c1cc(F)ccc1F` (stereo not shown) [Compound 68], for which, in assay [2], the pIC50 turned out to be 6.4.
Consider `COc1nc2ccc(Br)cc2cc1C(c1ccccc1)C(O)(CCN(C)C)c1cccc(F)c1` (stereo not shown) [Compound 108], for which, in assay [2], the pIC50 is 7.0.
In assay [1], `COc1nc2ccc(Br)cc2cc1C(c1ccccc1)C(O)(CCN1CCCCC1)c1ccc2ccccc2c1` (stereo not shown) [Compound 128] showed an MIC of 59.56 microgram/ml.
